Patent US7230033B2, “Pest control compositions and methods for their use” (United States of America as represented by the Secretary of …, priority 2000, dated 2007)

Key:
Culex p. pipiens = test: Mosquito susceptibility, serial dilutions (Example 8); conditions: in vivo
Ae. aegypti adults = test: Adult mosquito bottle bioassay; assay type: in vivo, Aedes aegypti
[1] = system: Ixodes scapularis nymphal ticks; test: Tick repellency bioassay; assay type: in vivo; conditions: listed as Nootkatone (Compound 7)
[2] = Aedes aegypti adult mosquitoes, alone, or 1:1 with carvacrol (in parenthesis)
[3] = 1 h after compound applied to applicator
[4] = 4 h after compound applied to applicator

C=C(C)[C@@H]1CCC2=CC(=O)C[C@@H](C)[C@]2(C)C1 [Compound 7, Nootkatone]
C. pipiens. LD50 (Culex p. pipiens): <4.5 × 10^−3
LC90 (Ae. aegypti adults; 24 h exposure, NE = not effective at concentrations tested): 0.0092 percent concentration, wt:vol
Slope (Ae. aegypti adults; 24 h exposure, probit): 6.22
LC50 (15 min) (Ae. aegypti adults; [2]): 0.035 % (wt:vol)
LC50 (24 h) (Ae. aegypti adults; [2]): 0.0057 % (wt:vol)
LC90 (15 min) (Ae. aegypti adults; [2]): 0.119 % (wt:vol)
LC90 (24 h) (Ae. aegypti adults; [2]): 0.0092 % (wt:vol)
LC50 (15 min) (Ae. aegypti adults; Aedes aegypti adult mosquitoes, alone, or 1:1 with carvacrol (in parenthesis), listed as compound 7): 0.035 % (wt:vol)
Slope (±SEM) ([1]; 1 h): 1.288 (±0.275)
RD50 [1, 3]: 0.186 % (wt:vol)
RD95 [1, 3]: 3.514 % (wt:vol)
Slope (±SEM) ([1]; 4 h): 1.291 (±0.277)
RD50 [1, 4]: 0.177 % (wt:vol)
RD95 [1, 4]: 3.319 % (wt:vol)
